From patent US20160122312A1, “ANTI-VIRAL COMPOUNDS, PHARMACEUTICAL COMPOSITIONS AND METHODS OF USE THEREOF” (KINETA, INC., priority 2013, published 2016)

Tests used:
[1] = system: influenza virus A/Udorn/72 H3N2 strain; assay: influenza focus-forming assay in 293 cells; format: cell-based
DNV type 2 strain = assay: DNV focus-forming assay in Huh7 cells; format: cell-based, Dengue virus
Murine EMCV = assay: EMCV in vitro antiviral assay, Huh7 cell viability by MTS; format: cell-based, encephalomyocarditis virus; conditions: Huh7 cells; for Cell viability post-infection: 5 hours before EMCV, MTS 18 hours after infection
Protocol: In an encephalomyocarditis virus (EMCV) in vitro antiviral assay, Huh7 cells were grown under normal growth conditions and treated with the indicated amount of KIN101 in media containing 0.5% DMSO. The cells were grown in the presence of compound for 5 hours and then infected with 250 pfu Murine EMCV obtained from ATCC #VR-129B. Infected cells were grown for an additional 18 hours and then cell viability was measured using an MTS assay. Negative control cells were treated with buffer alone containing 0.5% DMSO. Interferon treatment was used as a positive control for virus inhibition and was added similar to compound treatments at a final concentration of 10 IU/mL Interferon-α: Intron A, from Schering-Plough. Cell viability was measured using an MTS assay, CellTiter 96® AQueous One Solution Cell Proliferation Assay (MTS), from Promega #G3580. […]

RSV A2 Long strain = assay: RSV antiviral assay in HeLa cells; format: cell-based, respiratory syncytial virus; conditions: 48 hours post infection, FIG. 2B
[2] = system: interferon-stimulated gene (ISG) induction; assay: preliminary screen of natural product library for ISG induction; format: cell-based; conditions: preliminary screen of NCI natural product library
Excerpt: The compounds disclosed herein are described as isoflavone compounds. Isoflavones are best known as natural products isolated from the Leguminosae (legume) family and are usually polyhydroxylated and pharmacologically active as phytoestrogenics and antioxidants. The most recognizable member of this class is genistein, which has been reported to have anticancer activities and to induce thymic and immune changes in mammals (Banerjee, S., et al. (2008) Multi-targeted therapy of cancer by genistein, Cancer Lett 269, 226-242).

Structure (SMILES)	viral infection of 293 cells (decrease in foci, dose dependence) ([1]; FIGS. 3A, 3B)	IC50 ([1]; HEK293, 24 h, read-out: Flu IC50)	IC50 (DNV type 2 strain; Dengue virus, Huh-7, Huh7 cells, treatment after infection, 48 hours replication)	viral infection of Huh7 cells (decrease in foci, dose dependence) (DNV type 2 strain; FIG. 4B)	viral protein in cells infected with DNV (DNV type 2 strain; increasing amounts of compound, FIG. 4A)	Cell viability post-infection (Murine EMCV; 5 units added)	Cell viability post-infection (Murine EMCV; 10 units added)	Cell viability post-infection (Murine EMCV; 20 units added)	cell viability following infection with EMCV (in words) (Murine EMCV)	RSV viral RNA (RSV A2 Long strain)	interferon-stimulated gene (ISG) induction, screen outcome [2]
CS(=O)(=O)Oc1ccc2c(=O)c(-c3ccc(Br)cc3)coc2c1 [KIN101]	dose-dependent decreases in viral infection	2000 nM	> 5000 nM	dose-dependent decreases in viral infection	dose-dependent decrease in viral protein	~0.7	~1.2	~1.45	protective of cell viability	decreased RSV viral RNA	
O=c1c(-c2ccc(O)cc2)coc2cc(O)cc(O)c12 [genistein]											validated hit
